Earlier results, collected in patent US20050287230A1, “Method of producing ginsenoside 20 (R)-Rh2 and composition of matter thereof” (priority 2004, published 2005).
Like-named read-outs stand apart in the source and are kept apart here.

Assays:
HRA cells = details: dosage-dependent
[1] = system: Morris liver cancer, human cervical cancer, B16 malignant melanoma and Hela cells
[2] = Stomach irrigation with 2 g/kg
LAK cells = details: tumor patient
[3] = subcutaneous injection 10 mg/kg
[4] = mouse, orally taken
sarcoma 180 = details: 5 mg/kg dosage
rhTNF-a = rhTNF-a (Homo sapiens, UniProt P01375); details: external experiment
rhTNF-a, sequence (P01375 77-233 limits assumed): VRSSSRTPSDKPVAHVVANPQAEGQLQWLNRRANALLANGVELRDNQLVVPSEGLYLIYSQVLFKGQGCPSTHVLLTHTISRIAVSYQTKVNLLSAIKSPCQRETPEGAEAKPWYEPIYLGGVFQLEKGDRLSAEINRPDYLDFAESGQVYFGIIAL

Molecule: CC(C)=CCC[C@@](C)(O)[C@H]1CC[C@]2(C)[C@@H]1[C@H](O)C[C@@H]1[C@@]3(C)CC[C@H](O)C(C)(C)[C@@H]3[C@@H](O[C@@H]3O[C@H](CO)[C@@H](O)[C@H](O)[C@H]3O)C[C@]12C [ginsenoside 20(R)-Rh1]
- inhibition of HL60 tumor strain (HL60): inhibit the human promyelcytic leukemia HL60 tumor strain significantly

Molecule: CC(C)=CCC[C@](C)(O)[C@H]1CC[C@]2(C)[C@@H]1[C@H](O)C[C@@H]1[C@@]3(C)CC[C@H](O[C@@H]4O[C@H](CO)[C@@H](O)[C@H](O)[C@H]4O)C(C)(C)[C@@H]3CC[C@]12C [ginsenoside Rh2, ginseng dialcohol-3-O-β-D-glucopyranoside]
- effective range for inhibition of proliferation (HRA cells): 10˜100 μmol/L
- inhibition effect on the proliferation ([1]; 2-10 μg/ml in culture solution): different degrees of inhibition effect
- inhibition on the proliferation function ([1]; external experiment): outstanding inhibition
- inhibition of HL60 tumor strain (HL60): inhibit the human promyelcytic leukemia HL60 tumor strain significantly
- inhibition of HL60 tumor strain (HL60; listed as ginsenoside-Rh2): significant effect

Molecule: CC(C)=CC[C@@H](O)C1=CC(=O)c2c(O)ccc(O)c2C1=O [Shikonin]
- solubility in water: insoluble
- death [2]: no dead mouse

Molecule: CC(C)=CCC[C@](C)(O[C@@H]1O[C@H](CO)[C@@H](O)[C@H](O)[C@H]1O)[C@H]1CC[C@]2(C)[C@@H]1[C@H](O)C[C@@H]1[C@@]3(C)CC[C@H](O)C(C)(C)[C@@H]3[C@@H](O[C@@H]3O[C@H](CO)[C@@H](O)[C@H](O)[C@H]3O[C@@H]3O[C@@H](C)[C@H](O)[C@@H](O)[C@H]3O)C[C@]12C [ginsenoside Re]
- level above which effect upon LAK activity appears (LAK cells): > 5 µg/mL

Molecule: CC(C)=CCC[C@](C)(O)[C@H]1CC[C@]2(C)[C@@H]1[C@H](O)C[C@@H]1[C@@]3(C)CC[C@H](O)C(C)(C)[C@@H]3[C@@H](O[C@@H]3O[C@H](CO)[C@@H](O)[C@H](O)[C@H]3O)C[C@]12C [ginsenoside-Rh1]
- concentration that completely inhibits the proliferation (B16 melanoma cells): above 8.0 μg/ml

Molecule: C[C@H]1[C@H](C)CC[C@]2(C(=O)O)CC[C@]3(C)C(=CC[C@@H]4[C@@]5(C)CC[C@H](O)C(C)(C)[C@@H]5CC[C@]43C)[C@H]12 [Ursolic acid]
- serum gorge invert ammonia enzyme [3]: can reduce
- solubility in water: insoluble
- reversal of the inhibition function of MΦ (J744 macrophage; 50 μg/ml): partially deteriorates
- reversal of the inhibition function of MΦ (J744 macrophage; 100 μg/ml): totally deteriorate

Molecule: Lentinan
- acute toxicity LD50 [4]: > 1250 mg/kg
- inhibition rate of anti-tumor (sarcoma 180): 97.5%
- solubility in water: almost indissoluble

Molecule: CC(C)=CCC[C@](C)(O[C@@H]1O[C@H](CO[C@@H]2OC[C@H](O[C@@H]3OC[C@@H](O)[C@H](O)[C@H]3O)[C@H](O)[C@H]2O)[C@@H](O)[C@H](O)[C@H]1O)[C@H]1CC[C@]2(C)[C@@H]1[C@H](O)C[C@@H]1[C@@]3(C)CC[C@H](O[C@@H]4O[C@H](CO)[C@@H](O)[C@H](O)[C@H]4O[C@@H]4O[C@H](CO)[C@@H](O)[C@H](O)[C@H]4O)C(C)(C)[C@@H]3CC[C@]12C [ginsenoside-Ra1]
- increase of rhTNF-a activity (rhTNF-a): 134 times
